Source: patent publication US12404283B2, “c-MYC mRNA translation modulators and uses thereof in the treatment of cancer” (Anima Biotech Inc., priority 2022, dated 2025)

Test system: c-Myc
Assay: c-Myc immunofluorescence assay
Assay type: cell-based, human
Conditions: A549 cells, 24 hours treatment, anti-c-Myc immunofluorescence
Outline: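 A549 cells grown 48 h, exposed 24 h to rising compound concentrations, then fixed, permeabilised and stained for c-Myc plus DAPI. Nuclear-segmented c-Myc fluorescence quantified by high-content imaging at 20×; EC50 from logistic dose–response fits.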

Cc1ccc(-c2cn3c(n2)sc2cc(C(=O)NCCN)ccc23)cc1 [compound 122, N-(2-aminoethyl)-2-(p-tolyl)benzo[d]imidazo[2,1-b]thiazole-7-carboxamide]
Myc Efficacy (−LogEC50): + (+ >3 and <5)

CCN(CC)CCCNC(=O)c1ccc2c(c1)sc1nc(-c3ccccc3C)cn12 [compound 123, N-(3-(diethylamino)propyl)-2-(o-tolyl)benzo[d]imidazo [2,1-b]thiazole-7-carboxamide]
Myc Efficacy (−LogEC50): ++ (++ ≥5 and <6)

CCN(CC)CCCNC(=O)c1ccc2c(c1)sc1nc(-c3ccccc3Cl)cn12 [compound 124, 2-(2-ehlorophenyl)-N-(3-(diethylamino)propyl)benzo [d]imidazo[2,1-b]thiazole-7-carboxamide]
Myc Efficacy (−LogEC50): ++ (++ ≥5 and <6)

CCN(CC)CCCNC(=O)c1ccc2c(c1)sc1nc(-c3ccc(C(=O)NC)cc3)cn12 [compound 125, N-(3-(diethylamino)propyl)-2-(4-(methylcarbamoyl)phenyl) benzo[d]imidazo[2,1-b]thiazole-7-carboxamide]
Myc Efficacy (−LogEC50): ++ (++ ≥5 and <6)

CCc1ccc(-c2cn3c(n2)sc2cc(C(=O)NCCCN(CC)CC)ccc23)cc1 [compound 126, N-(3-(diethylamino)propyl)-2-(4-ethylphenyl)benzo[d] imidazo[2,1-b]thiazole-7-carboxamide]
Myc Efficacy (−LogEC50): ++ (++ ≥5 and <6)

CCN1CCC[C@@H]1CNC(=O)c1ccc2c(c1)sc1nc(-c3cccc(OC)c3)cn12 [compound 127, (R)-N-((1-ethylpyrrolidin-2-yl)methyl)-2-(3-methoxyphenyl)benzo[d] imidazo[2,1-b]thiazole-7-carboxamide]
Myc Efficacy (−LogEC50): + (+ >3 and <5)

CCN(CC)CCCNC(=O)c1ccc2c(c1)sc1nc(-c3ccccc3F)cn12 [compound 129, N-(3-(diethylamino)propyl)-2-(2-fluorophenyl)benzo[d] imidazo[2,1-b]thiazole-7-carboxamide]
Myc Efficacy (−LogEC50): ++ (++ ≥5 and <6)

CCN(CC)CCCNC(=O)c1ccc2c(c1)sc1nc(-c3cccc(F)c3)cn12 [compound 130, N-(3-(diethylamino)propyl)-2-(3-fluorophenyl)benzo[d] imidazo[2,1-b]thiazole-7-carboxamide]
Myc Efficacy (−LogEC50): ++ (++ ≥5 and <6)

CCN(CC)CCCNC(=O)c1ccc2c(c1)sc1nc(-c3cccc(Cl)c3)cn12 [compound 131, 2-(3-chlorophenyl)-N-(3-(diethylamino)propyl)benzo [d]imidazo[2,1-b]thiazole-7-carboxamide]
Myc Efficacy (−LogEC50): ++ (++ ≥5 and <6)

O=C(NCCCN1CCCCC1)c1ccc2c(c1)sc1nc(-c3ccc(Cl)cc3)cn12 [compound 132, 2-(4-chlorophenyl)-N-(3-(piperidin-1-yl)propyl) benzo[d]imidazo[2,1-b]thiazole-7-carboxamide]
Myc Efficacy (−LogEC50): ++ (++ ≥5 and <6)

Cc1cccc(-c2cn3c(n2)sc2cc(C(=O)NCCCN4CCC(F)(F)CC4)ccc23)c1 [compound 133, N-(3-(4,4-difluoropiperidin-1-yl)propyl)-2-(m-tolyl)benzo[d]imidazo[2,1-b]thiazole-7-carboxamide]
Myc Efficacy (−LogEC50): ++ (++ ≥5 and <6)

Cc1cccc(-c2cn3c(n2)sc2cc(C(=O)NCCCN4CCOCC4)ccc23)c1 [compound 134, N-(3-morpholinopropyl)-2-(m-tolyl)benzo[d]imidazo[2,1-b]thiazole-7-carboxamide]
Myc Efficacy (−LogEC50): + (+ >3 and <5)

Cc1cccc(-c2cn3c(n2)sc2cc(C(=O)NCCCN4CCS(=O)(=O)CC4)ccc23)c1 [compound 135, N-(3-(1,1-dioxidothiomorpholino)propyl)-2-(m-tolyl)benzo[d]imidazo[2,1-b]thiazole-7-carboxamide]
Myc Efficacy (−LogEC50): + (+ >3 and <5)
